Columns and labels:
[1] = tested on: ryegrass, Italian; assay: Test A postemergence; assay type: in vivo, Lolium multiflorum; settings: postemergence, 10 days
Method in brief: (§1)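 Weeds and crops in loam–sand blend were sprayed preemergence onto soil or postemergence at 2–10 cm (one- to two-leaf stage). Test chemicals were in a non-phytotoxic solvent with surfactant. After 10 days in the greenhouse, injury was rated visually against untreated controls on a 0 (no effect) to 100 (complete control) scale.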

[2] = tested on: ryegrass, Italian; assay: Test A preemergence; assay type: in vivo, Lolium multiflorum; settings: 0 to 100 scale
Method in brief: as §1

[3] = tested on: corn; assay: Test A preemergence; assay type: in vivo, Zea mays; settings: 0 to 100 scale
Method in brief: as §1

[4] = tested on: soybean; assay: Test A postemergence; assay type: in vivo, Glycine max; settings: postemergence, 10 days
Method in brief: as §1

[5] = tested on: blackgrass; assay: Test A postemergence; assay type: in vivo, Alopecurus myosuroides; settings: postemergence, 10 days
Method in brief: as §1

[6] = tested on: oat, wild; assay: Test A preemergence; assay type: in vivo, Avena fatua; settings: 0 to 100 scale
Method in brief: as §1

[7] = tested on: barnyardgrass; assay: Test B flooded paddy test; assay type: in vivo, Echinochloa crus-galli; settings: 250 g ai/ha, Flood, 13 days, 0 to 100 scale (0 no effect, 100 complete control)
Method in brief: (§2)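 Each species was raised to the 2-leaf stage. At treatment, each pot received floodwater 3 cm deep, with the chemical delivered into the water. Greenhouse holding followed for 13 days, then percent control was estimated visually versus untreated pots.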

[8] = tested on: pigweed, palmer; assay: Test A preemergence; assay type: in vivo, Amaranthus palmeri; settings: 0 to 100 scale
Method in brief: as §1

[9] = tested on: pigweed, palmer; assay: Test A postemergence; assay type: in vivo, Amaranthus palmeri; settings: 500 g ai/ha, postemergence, 10 days, visual injury, 0 to 100 scale (0 no effect, 100 complete control)
Method in brief: as §1

[10] = tested on: galium; assay: Test A postemergence; assay type: in vivo, Galium aparine; settings: 500 g ai/ha, postemergence, 10 days, visual injury, 0 to 100 scale (0 no effect, 100 complete control)
Method in brief: as §1

[11] = tested on: kochia; assay: Test A preemergence; assay type: in vivo, Bassia scoparia; settings: 0 to 100 scale
Method in brief: as §1

[12] = tested on: sedge, umbrella; assay: Test B flooded paddy test; assay type: in vivo, Cyperus difformis; settings: 250 g ai/ha, Flood, 13 days, 0 to 100 scale (0 no effect, 100 complete control)
Method in brief: as §2

[13] = tested on: barnyardgrass; assay: Test A preemergence; assay type: in vivo, Echinochloa crusgalli; settings: visual injury after 10 days, 0 to 100 scale, 0 is no effect, 100 is complete control
Method in brief: as §1

[14] = tested on: kochia; assay: Test A postemergence; assay type: in vivo, Bassia scoparia; settings: postemergence, 10 days
Method in brief: as §1

[15] = tested on: blackgrass; assay: Test A preemergence; assay type: in vivo, Alopecurus myosuroides; settings: 0 to 100 scale
Method in brief: as §1

[16] = tested on: horseweed; assay: Test A postemergence; assay type: in vivo, Erigeron canadensis; settings: postemergence, 10 days
Method in brief: as §1

[17] = tested on: rice; assay: Test B flooded paddy test; assay type: in vivo, Oryza sativa; settings: 250 g ai/ha, Flood, 13 days, 0 to 100 scale (0 no effect, 100 complete control)
Method in brief: as §2

[18] = tested on: foxtail, giant; assay: Test A postemergence; assay type: in vivo, Setaria faberi; settings: postemergence, 10 days
Method in brief: as §1

[19] = tested on: corn; assay: Test A postemergence; assay type: in vivo, Zea mays; settings: postemergence, 10 days
Method in brief: as §1

[20] = tested on: wheat; assay: Test A preemergence; assay type: in vivo, Triticum aestivum; settings: 0 to 100 scale
Method in brief: as §1

[21] = tested on: barnyardgrass; assay: Test A postemergence; assay type: in vivo, Echinochloa crusgalli; settings: postemergence, 10 days
Method in brief: as §1

[22] = tested on: soybean; assay: Test A preemergence; assay type: in vivo, Glycine max; settings: 0 to 100 scale
Method in brief: as §1

[23] = tested on: ragweed; assay: Test A postemergence; assay type: in vivo, Ambrosia artemisiifolia; settings: postemergence, 10 days
Method in brief: as §1

[24] = tested on: foxtail, giant; assay: Test A preemergence; assay type: in vivo, Setaria faberi; settings: 0 to 100 scale
Method in brief: as §1

[25] = tested on: oat, wild; assay: Test A postemergence; assay type: in vivo, Avena fatua; settings: postemergence, 10 days
Method in brief: as §1

[26] = tested on: wheat; assay: Test A postemergence; assay type: in vivo, Triticum aestivum; settings: postemergence, 10 days
Method in brief: as §1

[27] = tested on: ragweed; assay: Test A preemergence; assay type: in vivo, Ambrosia artemisiifolia; settings: 0 to 100 scale
Method in brief: as §1

[28] = tested on: ducksalad; assay: Test B flooded paddy test; assay type: in vivo, Heteranthera limosa; settings: 250 g ai/ha, Flood, 13 days, 0 to 100 scale (0 no effect, 100 complete control)
Method in brief: as §2

[29] = 125 g ai/ha, 0 to 100 scale, 0 no effect, 100 complete control
[30] = 500 g ai/ha, visual injury, 0 to 100 scale (0 no effect, 100 complete control)
[31] = 500 g ai/ha, visual injury after 10 days, 0 is no effect, 100 is complete control

## Cc1nc(C)n(-c2cccc(C(=O)N3C[C@H](C)Oc4c(Cl)cccc43)c2)n1 [Compound 142]
[1]; [29]
  Ryegrass, Italian plant response rating: 0
[1]; [30]
  Plant response rating, Ryegrass, Italian: 20
[2]; 125 g ai/ha
  Plant response rating, Ryegrass, Italian: 30
[2]; [31]
  Plant response rating, Ryegrass, Italian: 50
[3]; 125 g ai/ha
  Plant response rating, Corn: 0
[3]; [31]
  Plant response rating, Corn: 10
[4]; [29]
  Soybean plant response rating: 40
[4]; [30]
  Plant response rating, Soybean: 40
[5]; [29]
  Blackgrass plant response rating: 0
[5]; [30]
  Plant response rating, Blackgrass: 60
[6]; 125 g ai/ha
  Plant response rating, Oat, Wild: 0
[6]; [31]
  Plant response rating, Oat, Wild: 0
[7]
  Plant response rating, Barnyardgrass: 0
[8]; 125 g ai/ha
  Plant response rating, Pigweed, Palmer: 0
[8]; [31]
  Plant response rating, Pigweed, Palmer: 20
[9]
  Plant response rating, Pigweed, Palmer: 20
[10]
  Plant response rating, Galium: 30
[11]; 125 g ai/ha
  Plant response rating, Kochia: 0
[11]; [31]
  Plant response rating, Kochia: 40
[12]
  Plant response rating, Sedge, Umbrella: 0
[13]; 125 g ai/ha
  Plant response rating, Barnyardgrass: 30
[13]; 500 g ai/ha
  Plant response rating, Barnyardgrass: 50
[14]; [29]
  Kochia plant response rating: 10
[14]; [30]
  Plant response rating, Kochia: 50
[15]; 125 g ai/ha
  Plant response rating, Blackgrass: 0
[15]; [31]
  Plant response rating, Blackgrass: 30
[16]; [29]
  Horseweed plant response rating: 0
[16]; [30]
  Plant response rating, Horseweed: 0
[17]
  Plant response rating, Rice: 0
[18]; [29]
  Foxtail, Giant plant response rating: 30
[18]; [30]
  Plant response rating, Foxtail, Giant: 80
[19]; [29]
  Corn plant response rating: 10
[19]; [30]
  Plant response rating, Corn: 10
[20]; 125 g ai/ha
  Plant response rating, Wheat: 0
[20]; [31]
  Plant response rating, Wheat: 0
[21]; [29]
  Barnyardgrass plant response rating: 10
[21]; [30]
  Plant response rating, Barnyardgrass: 10
[22]; 125 g ai/ha
  Plant response rating, Soybean: 0
[22]; [31]
  Plant response rating, Soybean: 0
[23]; [29]
  Ragweed plant response rating: 0
[23]; [30]
  Plant response rating, Ragweed: 20
[24]; 125 g ai/ha
  Plant response rating, Foxtail, Giant: 30
[24]; [31]
  Plant response rating, Foxtail, Giant: 90
[25]; [29]
  Oat, Wild plant response rating: 0
[25]; [30]
  Plant response rating, Oat, Wild: 0
[26]; [29]
  Wheat plant response rating: 10
[26]; [30]
  Plant response rating, Wheat: 10
[27]; 125 g ai/ha
  Plant response rating, Ragweed: 0
[27]; [31]
  Plant response rating, Ragweed: 0
[28]
  Plant response rating, Ducksalad: 0
